# Values quoted from earlier work in patent US12708634B2, “Psilocybin derived compositions and methods using same” (1242753 Ontario Inc., priority 2021, dated 2026).
# Columns and labels:
# [1] = tested on: patients with treatment-resistant major depression; details: two oral doses (10 mg followed by 25 mg a week later)
# [2] = tested on: patients with advanced-stage cancer; details: oral dose 0.2 mg/kg
smiles,measurement,setting,value
CN(C)CCc1c[nH]c2cccc(OP(=O)(O)O)c12 [psilocybin],adverse events,[1],no clinically significant adverse events
same,adverse events,[2],no clinically significant adverse events
